In US7803930B2, “Antisense modulation of apolipoprotein B-expression” (Isis Pharmaceuticals, Inc., priority 2002, dated 2010):
In the oligonucleotide strings, read from the 5' end, every base follows the letter of its sugar. An asterisk marks phosphorothioate; unmarked linkages are phosphodiester. Other units and linkages are bracketed, terminal groups are in braces. A string of capitals states the bases alone. e = 2'-O-(2-methoxyethyl) (MOE); [5mC] = 5-methylcytosine; d = 2'-deoxy (DNA)

Tests used:
[1] = tested on: Cynomolgous monkey apolipoprotein B mRNA; test: Apolipoprotein B mRNA in primary Cynomolgous monkey hepatocytes, real-time PCR; type: cell-based; details: for % Inhibition of apolipoprotein B mRNA: primary Cynomolgous monkey hepatocytes
Protocol: Antisense inhibition by ISIS 301012 was compared to that of ISIS 326358, which is a perfect match to the Cynomolgous monkey apolipoprotein B sequence to which ISIS 301012 hybridizes. The compounds were analyzed for their effect on Cynomolgous monkey apolipoprotein B mRNA levels in primary Cynomolgous monkey hepatocytes purchased from In Vitro Technologies ([…].). Pre-plated primary Cynonomolgous monkey hepatocytes were purchased from InVitro Technologies (Baltimore, Md.). Cells were cultured in high-glucose DMEM (Invitrogen Corporation, Carlsbad, Calif.) supplemented with 10% fetal bovine serum (Invitrogen Corporation, Carlsbad, Calif.), 100 units/mL and 100 μg/mL streptomycin (Invitrogen Corporation, Carlsbad, Calif.).
Primary Cynomolgous monkey hepatocytes were treated with 10, 50, 150 or 300 nM of antisense oligonucleotides for 48 hours. ISIS 113529 (SEQ ID NO: 859) was used as a control oligonucleotide. Untreated cells also served as a control. Cynomolgous monkey apolipoprotein B mRNA levels were quantitated by real-time PCR using the human apolipoprotein B and GAPDH primers and probes described by other examples herein. The results, shown in Table 44, are the average of 6 experiments and are expressed as percent inhibition of apolipoprotein B mRNA normalized to untreated control cells.
In a further embodiment of the invention, antisense inhibition by ISIS 281625 was compared to that by ISIS 315089, which is a perfect match to the Cynomolgous monkey apolipoprotein B sequence to which ISIS 281625 hybridizes. Primary Cynomolgous monkey hepatocytes, cultured as described herein, were treated with 10, 50, 150 or 300 nM of ISIS 315089 or ISIS 281625 for 24 hours. Cells were treated with the control oligonucleotide ISIS 13650 (SEQ ID NO: 806) at 150 and 300 nM or ISIS 113529 (SEQ ID NO: 859) at 300 nM. Untreated cells also served as a control. Cynomolgous monkey apolipoprotein B mRNA levels in primary Cynomolgous monkey hepatocytes was quantitated using real-time PCR with human primers and probe as described by other examples herein. The results, shown in Table 46, are the average of 3 experiments and are expressed as percent inhibition of apolipoprotein B mRNA normalized to untreated control cells.
ISIS 271009 (SEQ ID NO: 319) and ISIS 301027 (SEQ ID NO: 262) were also tested for their effects on apolipoprotein B mRNA and protein expression in Cynomolgous primary hepatoctyes. Cells, cultured as described herein, were treated with 10, 50 and 150 nM of ISIS 271009 or ISIS 301027 for 24 hours. Cells were treated with the control oligonucleotide ISIS 113529 (SEQ ID NO: 859) at 150 nM. Untreated cells also served as a control. Cynomolgous monkey apolipoprotein B mRNA levels in primary Cynomolgous monkey hepatocytes was quantitated using real-time PCR with human primers and probe as described by other examples herein. The results, shown in Table 48, are the average of 2 experiments and are expressed as percent inhibition of apolipoprotein B mRNA normalized to untreated control cells.

apolipoprotein B protein = test: Apolipoprotein B protein secreted from primary Cynomolgous monkey hepatocytes, ELISA; type: cell-based; details: for % Reduction in secreted apolipoprotein B protein: primary Cynomolgous monkey hepatocytes; for % Reduction of monkey apolipoprotein B protein secretion / secretion of apolipoprotein B protein (ELISA): primary Cynomolgous hepatocytes
Protocol: Apolipoprotein B protein secreted from primary Cynomolgous hepatocytes treated with 150 and 300 nM of oligonucleotide was measured by ELISA using an apolipoprotein B protein specific kit (ALerCHEK Inc., Portland, Me.). Each result represents the average of 3 experiments.
Apolipoprotein B protein secreted primary Cynomolgous hepatocytes treated with 50 and 150 nM of ISIS 315089 and ISIS 281625 was measured by ELISA using an apolipoprotein B protein specific kit (ALerCHEK Inc., Portland, Me.). Each result represents the average of 3 experiments.
Apolipoprotein B protein secreted from primary Cynomolgous hepatocytes treated with 50 and 150 nM of ISIS 271009 and ISIS 301027 was measured by ELISA using an apolipoprotein B protein specific kit (ALerCHEK Inc., Portland, Me.). Each result represents the average of 3 experiments.

[2] = Toxicity in C57BL/6 mice, two weeks (Example 48): liver enzyme levels, body, liver and spleen weight; type: in vivo, mouse; design: Weight BODY / Weight LIVER / Weight SPLEEN: unit not given here; details: 25 mg/kg i.p. twice a week
Protocol: C57BL/6 mice were divided into two groups—one group receiving oligonucleotide treatment and control animals receiving saline treatment. After overnight fasting, mice were dosed intraperitoneally twice a week with saline or 25 mg/kg of one of several oligonucleotides for two weeks. The antisense oligonucleotides used in the present study were ISIS 233172 (SEQ ID NO: 835) and ISIS 233175 (SEQ ID NO: 838), both targeted to rabbit apolipoprotein B, and ISIS 281625 (SEQ ID NO: 224), ISIS 301012 (SEQ ID NO: 247), and ISIS 301027 (SEQ ID NO: 262), targeted to human apolipoprotein B. At study termination and forty eight hours after the final injections, animals were sacrificed and evaluated for liver enzyme levels, body weight, liver weight, and spleen weight.

[3] = tested on: rabbit apolipoprotein B mRNA; test: Inhibition of rabbit apolipoprotein B mRNA levels in primary rabbit hepatocytes, real-time PCR; type: cell-based; design: % INHIB of rabbit apolipoprotein B mRNA levels: concentration or dose not given beside the values; details: for Percent Inhibition of rabbit apolipoprotein B mRNA levels: averages from two experiments
From the text: Primary rabbit hepatocytes were purchased from Invitro Technologies (Gaithersburg, Md.) and maintained in Dulbecco's modified Eagle's medium (Gibco). When purchased, the cells had been seeded into 96-well plates for use in RT-PCR analysis and were confluent.
In accordance with the present invention, a series of oligonucleotides was designed to target different regions of rabbit apolipoprotein B, using published sequences (GenBank accession number X07480.1, incorporated herein as SEQ ID NO: 808, GenBank accession number M17780.1, incorporated herein as SEQ ID NO: 809, and a sequence was derived using previously described primers (Tanaka, Journ. Biol. Chem., 1993,268, 12713-12718) representing an mRNA of the rabbit apolipoprotein B, incorporated herein as SEQ ID NO: 810). “Target site” indicates the first (5′-most) nucleotide number on the particular target sequence to which the oligonucleotide binds. All compounds in Table 21 are chimeric oligonucleotides (“gapmers”) 20 nucleotides in length, composed of a central “gap” region consisting of ten 2′-deoxynucleotides, which is flanked on both sides (5′ and 3′ directions) by five-nucleotide “wings”. The wings are composed of 2′-methoxyethyl (2′-MOE)nucleotides. The internucleoside (backbone) linkages are phosphorothioate (P═S) throughout the oligonucleotide. All cytidine residues are 5-methylcytidines. The compounds were analyzed for their effect on rabbit apolipoprotein B mRNA levels in primary rabbit hepatocytes by quantitative real-time PCR as described in other examples herein. Primary rabbit hepatocytes were treated with 150 nM of the compounds in Table 21. For rabbit apolipoprotein B the PCR primers were: • forward primer: AAGCACCCCCAATGTCACC (SEQ ID NO: 811) • reverse primer: […] (SEQ ID NO: 812) and the PCR probe was: FAM-[…]-TAMRA (SEQ ID NO: 813) where FAM (PE-Applied Biosystems, Foster City, Calif.) is the fluorescent reporter dye) and TAMRA (PE-Applied Biosystems, Foster City, Calif.) is the quencher dye. Data are averages from two experiments. If present, “N.D.” indicates “no data”.
In accordance with the present invention, a subset of the antisense oligonuclotides in Example 42 was further investigated in dose-response studies. Treatment doses were 10, 50, 150 and 300 nM. ISIS 233160 (SEQ ID NO: 824), ISIS 233166 (SEQ ID NO: 830), ISIS 233172 (SEQ ID NO: 835), ISIS 233175 (SEQ ID NO: 838), and ISIS 233183 (SEQ ID NO: 846) were analyzed for their effect on rabbit apolipoprotein B mRNA levels in primary rabbit hepatocytes by quantitative real-time PCR as described in other examples herein.

Substance: 326358 (antisense eG*e[5mC]*e[5mC]*eT*e[5mC]*dA*dG*dT*d[5mC]*dT*dG*d[5mC]*dT*dT*dT*eA*e[5mC]*eA*e[5mC]*e[5mC]) [compound 326358]
- % Inhibition of apolipoprotein B mRNA ([1]; 10 nM, 24 hours): 35%
- % Inhibition of apolipoprotein B mRNA ([1]; 10 nM, 48 hours): 85%
- % Inhibition of apolipoprotein B mRNA ([1]; 50 nM, 24 hours): 66%
- % Inhibition of apolipoprotein B mRNA ([1]; 50 nM, 48 hours): 88%
- % Inhibition of apolipoprotein B mRNA ([1]; 150 nM, 24 hours): 61%
- % Inhibition of apolipoprotein B mRNA ([1]; 150 nM, 48 hours): 82%
- % Inhibition of apolipoprotein B mRNA ([1]; 300 nM, 24 hours): 64%
- % Inhibition of apolipoprotein B mRNA ([1]; 300 nM, 48 hours): 87%
- % Reduction in secreted apolipoprotein B protein (apolipoprotein B protein; 150 nM, 24 hours): 21%
- % Reduction in secreted apolipoprotein B protein (apolipoprotein B protein; 150 nM, 48 hours): 29%
- % Reduction in secreted apolipoprotein B protein (apolipoprotein B protein; 300 nM, 24 hours): 17%
- % Reduction in secreted apolipoprotein B protein (apolipoprotein B protein; 300 nM, 48 hours): 35%

Substance: ISIS 233175: SEQ ID NO: 838, targeted to rabbit apolipoprotein B (antisense eG*eA*e[5mC]*e[5mC]*eT*dT*dG*dA*dG*dT*dA*dG*dA*dT*dT*e[5mC]*e[5mC]*eT*eG*eG)
- levels of liver enzymes relative to saline treatment [2]: drastically increased

Substance: 233172 (antisense eA*eT*eG*eG*eA*dA*dG*dA*d[5mC]*dT*dG*dG*d[5mC]*dA*dG*e[5mC]*eT*e[5mC]*eT*eA) [compound 233172]
- % INHIB of rabbit apolipoprotein B mRNA levels [3]: 86%
- Percent Inhibition of rabbit apolipoprotein B mRNA levels ([3]; 10 nM): 60%
- Percent Inhibition of rabbit apolipoprotein B mRNA levels ([3]; 50 nM): 76%
- Percent Inhibition of rabbit apolipoprotein B mRNA levels ([3]; 150 nM): 81%
- Percent Inhibition of rabbit apolipoprotein B mRNA levels ([3]; 300 nM): 84%
- Liver Enzymes ALT [2]: 43.3 IU/L
- Liver Enzymes AST [2]: 94.3 IU/L
- Weight BODY [2]: 21.3
- Weight LIVER [2]: 1.3
- Weight SPLEEN [2]: 0.1

Substance: 315089 (antisense eA*eG*eA*eT*eT*dA*d[5mC]*d[5mC]*dA*dG*d[5mC]*d[5mC]*dA*dT*dA*eT*eG*e[5mC]*eA*eG) [compound 315089]
- % Inhibition of apolipoprotein B mRNA ([1]; 10 nM, 24 hours (Table 46), "+" = expression increased): 70%
- % Inhibition of apolipoprotein B mRNA ([1]; 50 nM, 24 hours (Table 46)): 83%
- % Inhibition of apolipoprotein B mRNA ([1]; 150 nM, 24 hours (Table 46), "+" = expression increased): 81%
- % Inhibition of apolipoprotein B mRNA ([1]; 300 nM, 24 hours (Table 46)): 82%
- % Reduction of monkey apolipoprotein B protein secretion (apolipoprotein B protein; 50 nM (Table 47)): 11%
- % Reduction of monkey apolipoprotein B protein secretion (apolipoprotein B protein; 150 nM (Table 47)): 25%

Substance: AGATTACCAGCCATATGCAG (gapmer: ten 2'-deoxy gap, five-nucleotide wings, wing chemistry not given here) [ISIS 315089]
- inhibition of apolipoprotein B mRNA expression ([1]; Cynomolgous monkey primary hepatocytes, 10, 50, 150 or 300 nM, 24 hours): in a dose-dependent manner
- secretion of apolipoprotein B protein (ELISA) (apolipoprotein B protein; 150 nM): decrease
- secretion of apolipoprotein B protein (ELISA) (apolipoprotein B protein; 50 and 150 nM (statement after Table 49)): decrease

Substance: 233175 (antisense eG*eA*e[5mC]*e[5mC]*eT*dT*dG*dA*dG*dT*dA*dG*dA*dT*dT*e[5mC]*e[5mC]*eT*eG*eG) [compound 233175]
- % INHIB of rabbit apolipoprotein B mRNA levels [3]: 90%
- Percent Inhibition of rabbit apolipoprotein B mRNA levels ([3]; 10 nM): 67%
- Percent Inhibition of rabbit apolipoprotein B mRNA levels ([3]; 50 nM): 85%
- Percent Inhibition of rabbit apolipoprotein B mRNA levels ([3]; 150 nM): 90%
- Percent Inhibition of rabbit apolipoprotein B mRNA levels ([3]; 300 nM): 93%
- Liver Enzymes ALT [2]: 230.2 IU/L
- Liver Enzymes AST [2]: 346.7 IU/L
- Weight BODY [2]: 21.5
- Weight LIVER [2]: 1.4
- Weight SPLEEN [2]: 0.1
